Data reported in article PMC6696278 (International Journal of Molecular Sciences, 2019).

How the values were obtained:
Assay type in all cases: binding
human galectin-7 = molecular target: T1, human galectin-7 (Homo sapiens, UniProt P47929); assay: competitive fluorescence polarization assay, galectin-7; settings: average and SEM, PBS, room temperature, galectin-7 at 5 µM, probe 0.02 µM
T1 construct: made in house; host or cells: E. coli BL21-star, pET3c plasmid (DNA from GenScript)
From the text: (§1) Human galectin-1 [25], galectin-2 [26], galectin-3 [27], galectin-4N [19], galectin-4C [19], galectin-8N [28], galectin-8C [28], galectin-9N [29], and galectin-9C [30], were expressed and purified as described earlier. Human galectin-7 was expressed using a pET3c plasmid in E. coli BL21-star. The plasmid containing expression optimized DNA encoding the full human galectin-7 sequence (NCBI Reference Sequence: NP_002298.1) was obtained from GenScript (Piscataway, NJ, USA). Bacterial culture and induction, and galectin purification was essential as described for galectin-3 expressed with the same vector [27]; a typical yield was 1.5–2 mg/L culture. Lactose was removed by chromatography on a PD-10 column (Amersham Biosciences) with repeated ultrafiltration with Centriprep (Amicon).
(§2) Fluorescence polarization experiments were carried out either with a POLARStar plate reader and FLUOstar Galaxy software or with a PheraStarFS plate reader and PHERAstar Mars version 2.10 R3 software (BMG, Offenburg, Germany). The dissociation constant (Kd) values were determined in PBS as described earlier. Specific conditions for galectin-1, 2, 3, 4N, 4C, 8N, 8C, 9N, and 9C were kept as reported. Experiments were performed at room temperature with human galectin-7 at 5 µM and the fluorescent probe β-D-galactopyranosyl-(1–4)-2-acetamido-2-deoxy-β-d-glucopyranosyl-(1–3)-β-d-galactopyranosyl-(1–4)-(N1-fluorescein-5-yl-carbonylaminomethylcarbonyl)-β-D-glucopyranosylamine at 0.02 µM. All the compounds in Table 1 except 32 were dissolved in a neat DMSO at 100 mM and diluted in PBS to three to six different concentrations to be tested in duplicate.

human galectin-1 = molecular target: T2, human galectin-1 (Homo sapiens, UniProt P09382); assay: competitive fluorescence polarization assay, galectin-1; settings: for Kd: average and SEM of 4–8 single-triple point measurements, PBS
T2 construct: made in house
T2 sequence (P09382 whole entry): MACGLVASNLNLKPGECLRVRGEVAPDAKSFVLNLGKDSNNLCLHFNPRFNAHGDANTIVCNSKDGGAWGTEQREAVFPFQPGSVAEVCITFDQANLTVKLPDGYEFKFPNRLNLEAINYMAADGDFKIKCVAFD
From the text: as §1, with “Bacterial culture and induction, and galectin purification was essential as described for galectin-3 expressed with the same vector [27]; a typical yield was 1.5–2 mg/L culture.” left out
as §2

[1] = molecular target: T3, human galectin-9N (N-terminal domain) (Homo sapiens, UniProt O00182); assay: competitive fluorescence polarization assay, galectin-9N; settings: PBS
T3 construct: 4N (N-terminal domain) 4C (C-terminal domain), 7, 8N, 8C, 9N, and 9C; made in house
T3 sequence (O00182 17-148 limits assumed): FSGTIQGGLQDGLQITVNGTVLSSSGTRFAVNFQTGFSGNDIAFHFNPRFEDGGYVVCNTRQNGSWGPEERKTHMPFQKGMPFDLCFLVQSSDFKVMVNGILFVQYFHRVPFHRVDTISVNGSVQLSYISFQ
From the text: as §1, §2

[2] = molecular target: T4, human galectin-8C (C-terminal domain) (Homo sapiens, UniProt O00214); assay: competitive fluorescence polarization assay, galectin-8C; settings: PBS
T4 construct: 4N (N-terminal domain) 4C (C-terminal domain), 7, 8N, 8C, 9N, and 9C; made in house
T4 sequence (O00214 187-317 limits assumed): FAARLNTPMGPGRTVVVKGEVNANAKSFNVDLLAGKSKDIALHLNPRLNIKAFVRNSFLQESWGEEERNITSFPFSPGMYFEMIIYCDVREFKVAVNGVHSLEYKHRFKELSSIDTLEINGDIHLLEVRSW
From the text: as §1, with “Bacterial culture and induction, and galectin purification was essential as described for galectin-3 expressed with the same vector [27]; a typical yield was 1.5–2 mg/L culture.” left out
as §2

[3] = molecular target: T5, human galectin-9C (C-terminal domain) (Homo sapiens, UniProt O00182); assay: competitive fluorescence polarization assay, galectin-9C; settings: PBS
T5 construct: 4N (N-terminal domain) 4C (C-terminal domain), 7, 8N, 8C, 9N, and 9C; made in house
T5 sequence (O00182 227-355 limits assumed): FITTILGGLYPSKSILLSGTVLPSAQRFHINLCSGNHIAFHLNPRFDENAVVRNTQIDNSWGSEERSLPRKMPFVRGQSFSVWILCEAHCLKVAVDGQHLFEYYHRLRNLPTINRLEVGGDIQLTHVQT
From the text: as §1, with “Bacterial culture and induction, and galectin purification was essential as described for galectin-3 expressed with the same vector [27]; a typical yield was 1.5–2 mg/L culture.” left out
as §2

human galectin-3 = molecular target: T6, human galectin-3 (Homo sapiens, UniProt P17931); assay: competitive fluorescence polarization assay, galectin-3; settings: average and SEM, PBS
T6 construct: made in house; host or cells: vector pET3c (the same vector as galectin-7)
T6 sequence (P17931 whole entry): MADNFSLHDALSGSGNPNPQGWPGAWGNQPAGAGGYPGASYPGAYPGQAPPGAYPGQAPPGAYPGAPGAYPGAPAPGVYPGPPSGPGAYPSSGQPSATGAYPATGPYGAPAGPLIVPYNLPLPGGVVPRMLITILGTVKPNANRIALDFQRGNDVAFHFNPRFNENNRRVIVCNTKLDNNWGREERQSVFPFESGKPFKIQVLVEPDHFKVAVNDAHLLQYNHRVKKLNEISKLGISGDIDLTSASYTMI
From the text: as §1, with “Bacterial culture and induction, and galectin purification was essential as described for galectin-3 expressed with the same vector [27]; a typical yield was 1.5–2 mg/L culture.” left out
as §2

[4] = molecular target: T7, human galectin-4N (N-terminal domain) (Homo sapiens, UniProt P56470); assay: competitive fluorescence polarization assay, galectin-4N; settings: for Kd: N-terminal domain, average and SEM, PBS
T7 construct: 4N (N-terminal domain) 4C (C-terminal domain); made in house
T7 sequence (P56470 19-150 limits assumed): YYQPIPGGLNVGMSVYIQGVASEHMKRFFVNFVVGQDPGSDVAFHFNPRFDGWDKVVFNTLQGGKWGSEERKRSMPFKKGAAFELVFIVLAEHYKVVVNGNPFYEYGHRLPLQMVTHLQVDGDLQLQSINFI
From the text: as §1, §2

[5] = molecular target: T8, human galectin-8N (N-terminal domain) (Homo sapiens, UniProt O00214); assay: competitive fluorescence polarization assay, galectin-8N; settings: PBS
T8 construct: 4N (N-terminal domain) 4C (C-terminal domain), 7, 8N, 8C, 9N, and 9C; made in house
T8 sequence (O00214 19-152 limits assumed): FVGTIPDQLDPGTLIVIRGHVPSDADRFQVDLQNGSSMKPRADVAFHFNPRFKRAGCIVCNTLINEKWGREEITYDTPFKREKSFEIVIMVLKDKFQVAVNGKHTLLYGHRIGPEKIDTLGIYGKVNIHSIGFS
From the text: as §1, with “Bacterial culture and induction, and galectin purification was essential as described for galectin-3 expressed with the same vector [27]; a typical yield was 1.5–2 mg/L culture.” left out
as §2

human galectin-2 = molecular target: T9, human galectin-2 (Homo sapiens, UniProt P05162); assay: competitive fluorescence polarization assay, galectin-2; settings: average and SEM, PBS
T9 construct: made in house
T9 sequence (P05162 1-132): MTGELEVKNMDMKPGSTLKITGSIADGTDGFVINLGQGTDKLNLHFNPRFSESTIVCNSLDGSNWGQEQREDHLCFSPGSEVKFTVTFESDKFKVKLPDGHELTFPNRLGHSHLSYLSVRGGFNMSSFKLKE
From the text: as §1, §2

[6] = molecular target: T10, human galectin-4C (C-terminal domain) (Homo sapiens, UniProt P56470); assay: competitive fluorescence polarization assay, galectin-4C; settings: PBS
T10 construct: 4N (N-terminal domain) 4C (C-terminal domain); made in house
T10 sequence (P56470 194-323 limits assumed): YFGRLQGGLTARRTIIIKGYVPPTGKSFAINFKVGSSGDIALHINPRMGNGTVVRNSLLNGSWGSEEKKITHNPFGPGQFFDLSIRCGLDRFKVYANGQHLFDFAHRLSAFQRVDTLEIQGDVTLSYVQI
From the text: as §1, with “Bacterial culture and induction, and galectin purification was essential as described for galectin-3 expressed with the same vector [27]; a typical yield was 1.5–2 mg/L culture.” left out
as §2

T1 sequence (P47929 whole entry): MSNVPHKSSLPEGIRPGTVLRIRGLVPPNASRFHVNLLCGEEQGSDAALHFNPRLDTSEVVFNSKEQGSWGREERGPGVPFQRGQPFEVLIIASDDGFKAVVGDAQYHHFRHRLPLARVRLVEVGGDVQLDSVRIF

Structure (SMILES)	Kd (human galectin-7; Table 1) [mM]	Kd (human galectin-1; Table 1) [mM]	Kd ([1]; Table 1, average and SEM) [mM]	Kd ([2]; Table 1, average and SEM) [mM]	Kd ([3]; Table 1, average and SEM) [mM]	Kd (human galectin-3; Table 1) [mM]	Kd ([4]; Table 1) [mM]	Kd ([5]; Table 1, average and SEM) [mM]	Kd (human galectin-2; Table 1) [mM]	Kd ([6]; Table 1, average and SEM) [mM]	other results
CO[C@@H]1O[C@H](CO)[C@H](O)[C@@H](CO)[C@H]1O [Compound 1a, Methyl 3-Deoxy-3-C-Hydroxymethyl-β-D-Gulopyranoside]	> 4	1.3 ± 0.15	> 4	3.7 ± 0.02	> 4	> 4	> 4	> 4			fold better affinity for galectin-1 than reference methyl β-D-galactopyranoside 32 (human galectin-1; ratio of Kd values): 7 fold
CO[C@@H]1O[C@H](CO)[C@H](O)[C@H](CO)[C@H]1O [Compound 1b, Methyl 3-Deoxy-3-C-Hydroxymethyl-β-D-Galactopyranoside]	> 4	> 4	> 4	> 4	> 4	> 4	> 4	> 4	> 4	> 4	binding to galectin-4N (in words) [4]: weak binding
CO[C@@H]1O[C@H](CO)[C@H](O)[C@H](COc2cccc(C(F)(F)F)c2)[C@H]1O [Compound 2, Methyl 3-Deoxy-3-C-(3-Trifluoromethylphenoxymethyl)-β-D-Galactopyranoside]	> 4	> 4	> 4	> 4	> 4	> 4	> 4	> 4	> 4	> 4	
COC[C@H]1[C@@H](O)[C@@H](CO)O[C@@H](OC)[C@@H]1O [Compound 3, Methyl 3-Deoxy-3-C-Methoxymethyl-β-D-Galactopyranoside]		> 4		> 4		> 4		> 4			
CO[C@@H]1O[C@H](CO)[C@H](O)[C@H](Cn2cc(-c3cccc(F)c3)nn2)[C@H]1O [Compound 4, Methyl 3-Deoxy-3-C-[4-(3-Fluorophenyl)-1H-1,2,3-Triazol-1-Ylmethyl]-β-D-Galactopyranoside]	> 4	> 4	> 4	> 4	> 4	> 4	> 4	> 4	> 4	> 4	
CO[C@@H]1O[C@H](CO)[C@H](O)[C@H](CNC(=O)Nc2cccc(F)c2)[C@H]1O [Compound 5, Methyl 3-Deoxy-3-C-(3-Fluorophenylureido)Methyl-β-D-Galactopyranoside]	> 4	> 4	> 4	> 4	> 4	> 4	> 4	> 4	> 4	> 4	
CO[C@@H]1O[C@H](CO)[C@H](O)[C@@H](CNS(=O)(=O)c2ccccc2)[C@H]1O [Compound 6, Methyl 3-Deoxy-3-C-(Phenylsufonamido)Methyl-β-D-Galactopyranoside]	> 4	> 10		> 4	> 4	> 4	> 4	> 4		> 4	
CO[C@@H]1O[C@H](CO)[C@H](O)[C@@H](CNC(=O)c2ccccc2)[C@H]1O [Compound 7a, Methyl 3-Deoxy-3-C-Benzamidomethyl-β-D-Gulopyranoside]	> 4	1.8 ± 0.15		> 4	> 4	> 4	> 4	> 4	> 4	> 4	
CO[C@@H]1O[C@H](CO)[C@H](O)[C@@H](CNP(=O)(Oc2ccccc2)Oc2ccccc2)[C@H]1O [Compound 8, Methyl 3-Deoxy-3-C-(Diphenylphosphonamidomethyl)-β-D-Galactopyranoside]	> 4	> 10		> 4	> 5	> 4	> 4	> 4		> 4	
CO[C@@H]1O[C@H](CO)[C@H](O)[C@@H](O)[C@H]1O [Compound 9, Methyl β-D-Gulopyranoside]											Kd (human galectin-7; Table 2): > 4 mM; Kd ([1]; Table 2, average and SEM): > 4 mM; Kd ([3]; Table 2, average and SEM): > 4 mM; Kd (human galectin-2; Table 2): 10 ± 1.5 mM
CO[C@@H]1O[C@H](CO)[C@H](O)[C@@H](NC(=O)c2ccccc2)[C@H]1O [Compound 10, Methyl 3-Benzamido-3-Deoxy-β-D-Gulopyranoside]											Kd (human galectin-1; Table 2): > 4 mM; binding to galectin-1 (in words) (human galectin-1; under the assay conditions): no binding; Kd ([1]; Table 2, average and SEM): > 4 mM; Kd ([2]; Table 2, average and SEM): > 4 mM; Kd ([3]; Table 2, average and SEM): > 4 mM; Kd (human galectin-3; Table 2): > 4 mM; Kd (human galectin-2; Table 2): > 4 mM; binding to galectin-4N (in words) [4]: improved binding; Kd ([4]; Table 2): 1.3 ± 0.2 mM; Kd ([6]; Table 2, average and SEM): > 4 mM; Kd ([5]; Table 2, average and SEM): > 4 mM
